Values quoted from earlier work in US8445706B2, “Unnatural amino acids capable of covalently modifying protein phosphatases and their use as general and specific inhibitors and probes” (Board of Trustees of Northern Illinois University, priority 2008, dated 2013).

Conditions: neutral or basic aqueous solutions; cited from earlier work

With O=P(O)(O)C(Br)c1ccccc1 (stereo not drawn) [α-bromobenzylphosphonate] as the compound, how does the solvolysis read?
Its solvolysis is “undergoes solvolysis”.
